This passage reports IC50, Activity and inhibition results from ChEMBL document CHEMBL1221402, “Bioactivity-guided isolation of 1,2,3,4,6-Penta-O-galloyl-D-glucopyranose from Paeonia lactiflora roots as a PTP1B inhibitor” (J Nat Prod, 2010).

The source made the active and inactive calls. The rule behind the calls is not given here.

Assay [1] has as its target T1, Tyrosine-protein phosphatase non-receptor type 1 (Homo sapiens, UniProt P18031).
T1 sequence (P18031 whole entry): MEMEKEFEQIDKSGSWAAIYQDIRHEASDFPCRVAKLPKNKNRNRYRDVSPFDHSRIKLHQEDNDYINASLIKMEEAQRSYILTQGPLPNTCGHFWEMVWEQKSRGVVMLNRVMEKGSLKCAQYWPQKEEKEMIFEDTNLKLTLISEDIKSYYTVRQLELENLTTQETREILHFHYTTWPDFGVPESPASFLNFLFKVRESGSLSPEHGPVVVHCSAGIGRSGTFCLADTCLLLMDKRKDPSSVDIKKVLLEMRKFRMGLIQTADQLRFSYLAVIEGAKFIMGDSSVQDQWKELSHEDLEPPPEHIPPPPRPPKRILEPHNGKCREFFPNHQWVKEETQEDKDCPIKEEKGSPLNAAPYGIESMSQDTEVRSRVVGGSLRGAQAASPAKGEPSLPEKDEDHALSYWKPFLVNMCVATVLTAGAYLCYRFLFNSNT
Nature of the assay: Inhibition of human recombinant PTP1B.

The target in assay [2] is Insulin receptor (Homo sapiens) (UniProt P06213). In words: Induction of IR phosphorylation in insulin-stimulated starved human HCC-1.2 cells at 10 uM pretreated 2 hrs before insulin challenge by Western blot analysis. Background: A western blot detects proteins with antibodies after separation by electrophoresis.
Chain of Insulin receptor (Homo sapiens) (P06213 28-758 limits assumed): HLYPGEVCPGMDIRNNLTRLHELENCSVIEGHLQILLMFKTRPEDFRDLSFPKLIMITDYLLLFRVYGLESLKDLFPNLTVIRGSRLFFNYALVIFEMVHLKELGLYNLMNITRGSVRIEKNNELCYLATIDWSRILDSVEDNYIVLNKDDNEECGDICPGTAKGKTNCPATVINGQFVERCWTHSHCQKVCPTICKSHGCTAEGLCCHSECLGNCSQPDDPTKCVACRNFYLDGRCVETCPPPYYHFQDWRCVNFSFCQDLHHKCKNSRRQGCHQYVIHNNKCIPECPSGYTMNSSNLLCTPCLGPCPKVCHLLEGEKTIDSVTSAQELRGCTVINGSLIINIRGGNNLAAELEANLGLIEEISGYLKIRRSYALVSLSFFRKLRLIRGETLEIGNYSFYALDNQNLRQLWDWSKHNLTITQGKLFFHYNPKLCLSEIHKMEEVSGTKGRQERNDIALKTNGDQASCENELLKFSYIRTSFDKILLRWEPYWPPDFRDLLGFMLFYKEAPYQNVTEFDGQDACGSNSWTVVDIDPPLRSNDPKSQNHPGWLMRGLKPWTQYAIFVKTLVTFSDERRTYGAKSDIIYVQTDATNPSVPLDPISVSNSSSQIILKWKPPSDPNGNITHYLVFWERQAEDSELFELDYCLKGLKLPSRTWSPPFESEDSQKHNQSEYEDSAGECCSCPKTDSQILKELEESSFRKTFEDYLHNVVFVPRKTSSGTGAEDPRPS
Chain of Insulin receptor (Homo sapiens) (P06213 763-1382 limits assumed): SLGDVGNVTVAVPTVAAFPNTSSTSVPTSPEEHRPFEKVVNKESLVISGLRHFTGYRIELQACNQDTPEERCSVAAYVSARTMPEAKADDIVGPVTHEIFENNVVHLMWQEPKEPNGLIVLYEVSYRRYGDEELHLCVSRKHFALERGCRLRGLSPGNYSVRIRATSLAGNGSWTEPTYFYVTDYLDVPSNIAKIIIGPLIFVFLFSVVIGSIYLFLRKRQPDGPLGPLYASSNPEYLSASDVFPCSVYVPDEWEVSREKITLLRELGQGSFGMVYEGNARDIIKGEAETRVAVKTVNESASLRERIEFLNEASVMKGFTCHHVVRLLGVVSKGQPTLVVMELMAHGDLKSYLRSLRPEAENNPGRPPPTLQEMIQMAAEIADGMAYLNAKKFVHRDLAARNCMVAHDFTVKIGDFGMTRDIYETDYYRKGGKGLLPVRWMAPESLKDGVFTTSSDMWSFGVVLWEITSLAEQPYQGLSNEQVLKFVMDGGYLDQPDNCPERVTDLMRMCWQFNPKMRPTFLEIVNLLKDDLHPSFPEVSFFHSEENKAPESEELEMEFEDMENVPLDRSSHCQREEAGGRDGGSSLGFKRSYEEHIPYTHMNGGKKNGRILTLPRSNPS
Assay [3] addresses T2, Tyrosine-protein phosphatase non-receptor type 2 (Homo sapiens, UniProt P17706).
T2 sequence (P17706 whole entry): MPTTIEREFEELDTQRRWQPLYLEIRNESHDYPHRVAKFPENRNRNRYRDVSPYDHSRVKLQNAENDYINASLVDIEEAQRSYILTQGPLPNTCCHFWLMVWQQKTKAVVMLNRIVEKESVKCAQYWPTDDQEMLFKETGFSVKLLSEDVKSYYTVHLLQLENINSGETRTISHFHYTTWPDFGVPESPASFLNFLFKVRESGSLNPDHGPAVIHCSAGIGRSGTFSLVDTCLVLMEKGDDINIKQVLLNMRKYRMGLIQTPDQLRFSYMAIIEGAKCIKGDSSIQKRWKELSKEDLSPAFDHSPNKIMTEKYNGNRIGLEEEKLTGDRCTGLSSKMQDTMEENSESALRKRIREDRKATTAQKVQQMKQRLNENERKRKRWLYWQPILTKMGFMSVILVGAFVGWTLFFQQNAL
Nature of the assay: Inhibition of TCPTP.

Assay [4] deals with Receptor-type tyrosine-protein phosphatase F (Homo sapiens) (UniProt P10586). In words: Inhibition of LAR at <50 uM.
Chain of Receptor-type tyrosine-protein phosphatase F (Homo sapiens) (P10586 whole entry): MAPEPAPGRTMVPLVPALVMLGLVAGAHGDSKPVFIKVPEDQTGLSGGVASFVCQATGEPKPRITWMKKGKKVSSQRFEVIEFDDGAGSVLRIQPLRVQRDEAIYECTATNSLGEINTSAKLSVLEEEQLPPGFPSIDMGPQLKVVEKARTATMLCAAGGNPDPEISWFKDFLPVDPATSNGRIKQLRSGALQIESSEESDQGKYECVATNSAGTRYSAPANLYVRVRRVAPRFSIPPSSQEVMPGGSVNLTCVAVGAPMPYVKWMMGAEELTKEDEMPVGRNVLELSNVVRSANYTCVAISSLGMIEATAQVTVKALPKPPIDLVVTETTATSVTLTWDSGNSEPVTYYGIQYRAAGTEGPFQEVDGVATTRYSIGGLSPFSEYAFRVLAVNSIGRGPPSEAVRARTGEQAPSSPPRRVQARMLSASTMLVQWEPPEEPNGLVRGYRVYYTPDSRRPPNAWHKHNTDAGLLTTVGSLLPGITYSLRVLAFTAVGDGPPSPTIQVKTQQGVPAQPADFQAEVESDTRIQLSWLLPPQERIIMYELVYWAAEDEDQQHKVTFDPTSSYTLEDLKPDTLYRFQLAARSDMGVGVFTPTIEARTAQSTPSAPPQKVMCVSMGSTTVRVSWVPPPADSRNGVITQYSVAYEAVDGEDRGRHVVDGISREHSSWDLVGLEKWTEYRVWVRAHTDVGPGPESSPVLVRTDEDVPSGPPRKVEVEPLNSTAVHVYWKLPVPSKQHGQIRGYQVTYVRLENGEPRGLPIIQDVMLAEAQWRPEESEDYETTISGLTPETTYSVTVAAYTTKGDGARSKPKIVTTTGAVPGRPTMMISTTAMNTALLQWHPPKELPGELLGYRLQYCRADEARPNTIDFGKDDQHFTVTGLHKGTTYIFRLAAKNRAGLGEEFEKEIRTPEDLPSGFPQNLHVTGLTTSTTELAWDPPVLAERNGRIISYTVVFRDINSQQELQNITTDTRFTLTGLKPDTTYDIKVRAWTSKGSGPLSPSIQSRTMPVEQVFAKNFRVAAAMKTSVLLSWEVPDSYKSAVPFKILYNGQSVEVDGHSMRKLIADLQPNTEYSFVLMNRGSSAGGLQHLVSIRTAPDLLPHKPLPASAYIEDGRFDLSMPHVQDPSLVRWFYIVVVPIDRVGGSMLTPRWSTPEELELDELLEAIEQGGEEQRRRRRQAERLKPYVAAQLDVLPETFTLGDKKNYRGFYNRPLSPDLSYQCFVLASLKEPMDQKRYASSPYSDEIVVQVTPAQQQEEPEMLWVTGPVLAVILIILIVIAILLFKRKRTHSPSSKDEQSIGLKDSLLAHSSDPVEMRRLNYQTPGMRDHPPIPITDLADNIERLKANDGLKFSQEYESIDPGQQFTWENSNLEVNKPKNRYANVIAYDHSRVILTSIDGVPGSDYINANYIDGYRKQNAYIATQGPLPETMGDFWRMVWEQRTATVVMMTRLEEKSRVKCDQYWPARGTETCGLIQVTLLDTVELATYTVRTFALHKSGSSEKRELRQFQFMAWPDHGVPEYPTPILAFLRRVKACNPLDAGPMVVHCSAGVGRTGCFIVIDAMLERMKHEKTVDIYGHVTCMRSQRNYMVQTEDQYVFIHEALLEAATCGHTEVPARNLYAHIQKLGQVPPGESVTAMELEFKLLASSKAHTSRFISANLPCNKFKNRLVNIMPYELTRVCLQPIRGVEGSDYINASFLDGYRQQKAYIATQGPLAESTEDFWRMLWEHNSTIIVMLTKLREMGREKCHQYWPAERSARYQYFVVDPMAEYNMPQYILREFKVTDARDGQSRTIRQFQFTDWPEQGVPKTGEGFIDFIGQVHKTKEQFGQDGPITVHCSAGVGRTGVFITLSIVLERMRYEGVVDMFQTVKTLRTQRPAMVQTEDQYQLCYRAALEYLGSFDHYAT
For assay [5], the target named is T3, Tyrosine-protein phosphatase non-receptor type 11 (Homo sapiens) (UniProt Q06124).
T3 sequence (whole entry): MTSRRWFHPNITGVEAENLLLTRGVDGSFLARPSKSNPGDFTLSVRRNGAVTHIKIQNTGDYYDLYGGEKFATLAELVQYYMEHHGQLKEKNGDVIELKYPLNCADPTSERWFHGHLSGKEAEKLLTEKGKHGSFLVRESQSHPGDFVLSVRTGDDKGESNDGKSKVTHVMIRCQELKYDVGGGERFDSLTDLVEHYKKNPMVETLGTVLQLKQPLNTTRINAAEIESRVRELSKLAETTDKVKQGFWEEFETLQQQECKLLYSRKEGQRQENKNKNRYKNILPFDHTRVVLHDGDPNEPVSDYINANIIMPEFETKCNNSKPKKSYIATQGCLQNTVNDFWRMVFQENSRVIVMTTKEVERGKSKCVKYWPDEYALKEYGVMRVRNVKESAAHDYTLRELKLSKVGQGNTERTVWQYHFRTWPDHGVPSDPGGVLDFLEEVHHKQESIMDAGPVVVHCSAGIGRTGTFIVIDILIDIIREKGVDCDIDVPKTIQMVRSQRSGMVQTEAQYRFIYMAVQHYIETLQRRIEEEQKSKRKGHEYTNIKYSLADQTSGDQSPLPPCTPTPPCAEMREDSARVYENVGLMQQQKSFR
Nature of the assay: Inhibition of SHP-2 at <50 uM.

In the case of `O=C(OC[C@H]1O[C@H](OC(=O)c2cc(O)c(O)c(O)c2)[C@H](OC(=O)c2cc(O)c(O)c(O)c2)[C@@H](OC(=O)c2cc(O)c(O)c(O)c2)[C@@H]1OC(=O)c1cc(O)c(O)c(O)c1)c1cc(O)c(O)c(O)c1`, the IC50 (in general, the midpoint of a concentration-inhibition curve) in assay [1] is 4800 nM; in assay [3], 70 nM. Moreover, the result in assay [2] was Active. In addition, the inhibition result in assay [4] and in assay [5] was “inactive” each time.
